Data: patent US20090099187A1, “Novel 8-Sulfonyl-3 Aminosubstituted Chroman or Tetrahydronaphtalene Derivatives Modulating the 5HT6 Receptor” (AstraZeneca AB, priority 2005, published 2009)

molecular target: rat striatal 5HT6 receptors (Rattus norvegicus, UniProt P31388)
Sequence (P31388 whole entry): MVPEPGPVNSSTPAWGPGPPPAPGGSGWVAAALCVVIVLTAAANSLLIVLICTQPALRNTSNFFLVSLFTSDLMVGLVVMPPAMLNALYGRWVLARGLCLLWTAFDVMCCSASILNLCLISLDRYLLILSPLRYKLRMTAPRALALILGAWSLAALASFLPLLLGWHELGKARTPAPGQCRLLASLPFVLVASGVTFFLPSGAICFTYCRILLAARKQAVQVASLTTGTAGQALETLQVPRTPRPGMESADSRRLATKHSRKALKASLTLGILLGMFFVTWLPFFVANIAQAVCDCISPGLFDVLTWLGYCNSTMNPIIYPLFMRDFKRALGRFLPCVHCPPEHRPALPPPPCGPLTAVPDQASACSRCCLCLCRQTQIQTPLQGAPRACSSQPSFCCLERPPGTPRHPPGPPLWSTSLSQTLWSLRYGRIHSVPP
Procedure: Striatal tissue from adult rats (Sprague-Dawley, 320-370 g, B & K Sweden) were dissected out, weighed and homogenized in buffer containing 50 mM Tris-HCl, 4 mM MgCl2, 1 mM EDTA, 10 μM pargyline and protease inhibitor (Complete, Roche Diagnostics) pH 7.4 using an Ultra-Turrax T8 (IKA Labortechnik, Germany). The tissue homogenate was centrifuged at 48 000×g for 10 min and the pellet was resuspended and recentrifuged as above. The final membranes were diluted in buffer to a concentration of 60 mg original wet weight (w.w.) per ml and stored in aliquots at −70° C.
Non-specific binding was determined in the presence of 10 μM methiothepin. In the competition experiments 0.8-2 mg w.w. per tube and a radioligand concentration of 0.5-1 nM were used with 7 concentrations of the competing drug pre-dissolved in DMSO and diluted in buffer. The assays were incubated for 1-3 hours at room temperature, and terminated by rapid filtration through Whatman GF/B filters pretreated with 0.3% polyethyleneimine using a Brandel cell harvester. The radioactivity was determined in a Packard Tri-Carb 2900TR liquid scintillation counter. Data were analyzed by non-linear regression analyses using PRISM 4.00 (GraphPad Software Inc., San Diego, Calif.).

Compound	Ki [nM]
COc1ccc(S(=O)(=O)N2CCc3ccccc3C2)c2c1C[C@@H](N(C)C)CC2 [Example 21, [5-(3,4-Dihydro-1H-isoquinoline-2-sulfonyl)-8-methoxy-1,2,3,4-tetrahydro-naphthalen-2-yl]-dimethyl-amine]	4.2 ± 1.4
CN[C@H]1CCc2c(S(=O)(=O)Nc3ccc(Cl)cc3)ccc(OC)c2C1 [Example 25, (6S)—N-(4-chlorophenyl)-4-methoxy-6-(methylamino)-5,6,7,8-tetrahydronaphthalene-1-sulfonamide]	12 ± 4.2
COc1ccc(Cl)cc1NS(=O)(=O)c1ccc(OC)c2c1OC[C@H](N(C)C)C2 [Example 60, (3R)—N-(5-Chloro-2-methoxyphenyl)-3-(dimethylamino)-5-methoxychromane-8-sulfonamide]	2.3 ± 1.3
COc1ccc(S(=O)(=O)Nc2ccccn2)c2c1C[C@@H](N(C)C)CC2 [Example 18, (6S)-6-(Dimethylamino)-4-methoxy-N-pyridin-2-yl-5,6,7,8-tetrahydronaphthalene-1-sulfonamide]	17 ± 5
COc1ccc(Cl)cc1NS(=O)(=O)c1ccc(OC)c2c1CC[C@H](N(C)C)C2 [Example 1, (6S)—N-(5-Chloro-2-methoxyphenyl)-6-(dimethylamino)-4-methoxy-5,6,7,8-tetrahydronaphthalene-1-sulfonamide]	1.7 ± 0.6

Next, values leading:

Ki [nM]	Compound
27 ± 16	COc1ccc(S(=O)(=O)Nc2cc(Cl)cc(Cl)c2)c2c1C[C@@H](N1CCCC1)CO2 [Example 69, (3R)—N-(3,5-Dichlorophenyl)-5-methoxy-3-pyrrolidin-1-ylchromane-8-sulfonamide]
30 ± 7	CN[C@H]1COc2c(S(=O)(=O)Nc3ccccc3)ccc(OC)c2C1 [Example 71, (3R)-5-Methoxy-3-(methylamino)-N-phenylchromane-8-sulfonamide]
290 ± 50	CCc1ccc(S(=O)(=O)Nc2ccc(F)c(Cl)c2)c2c1C[C@@H](N(C)C)CO2 [Example 72, (3R)—N-(3-Chloro-4-fluorophenyl)-3-(dimethylamino)-5-ethylchromane-8-sulfonamide]
